In patent US20210386069A1 (priority 2018, published 2021) one finds logP and chromatographic logP data, which are given here for 81 molecules.

For orientation: logP means the decadic logarithm of the partition coefficient of the neutral form, usually between octanol and water. The low end stands for lower lipophilicity, the high end for higher lipophilicity. The chromatographic logP is a lipophilicity value derived from retention on a column.

A short description of one data set: log P by HPLC on a reversed-phase column (C 18), EEC Directive 79/831 Annex V.A8. Type of data set: physicochemical. Particulars: HPLC reversed-phase C 18, 40° C., 0.1% aqueous formic acid and acetonitrile, linear gradient 10% to 95% acetonitrile. As for the experimental part: In table 1, the log P values were determined in accordance with EEC Directive 79/831 Annex V.A8 by HPLC (High Performance Liquid Chromatography) on a reversed-phase column (C 18), using the method described below:
temperature: 40° C.; mobile phases: 0.1% aqueous formic acid and acetonitrile; linear gradient from 10% acetonitrile to 95% acetonitrile;
If more than one Log P value is available within the same method, all the values are given and separated by “;”.
Calibration was carried out using unbranched alkan-2-ones (comprising 3 to 16 carbon atoms) with known log P values (determination of the log P values by the retention times using linear interpolation between two successive alkanones). lambda-max-values were determined using UV-spectra from 200 nm to 400 nm and the peak values of the chromatographic signals.
`Fc1ccc(Nc2cnc3ccccc3c2)c(-c2cccnc2)c1` [I.001] showed a log partition coefficient (logP) of 1.39.

`Cc1nc2ccccc2nc1Nc1cccc(F)c1-c1ccncc1F` [I.002] returned a logP of 2.57.

On to `Cc1nc2c(F)c(F)ccc2cc1Nc1ccccc1-c1ccnnc1` [I.003], for which the logP is 2.28.

`Cc1cncc(-c2ccccc2Nc2cc3ccc(F)c(F)c3nc2C)c1` [I.004] came in with a logP of 1.99.

For the molecule `Cc1cc(-c2ccccc2Nc2cc3ccc(F)c(F)c3nc2C)ccn1` [I.005], the logP was 1.75.

In turn, `Cc1ccncc1-c1ccccc1Nc1cc2ccc(F)c(F)c2nc1C` [I.006] registered a logP of 1.86.

As for `Cc1nc2c(F)c(F)ccc2cc1Cc1cccc(F)c1-c1ccncc1` [I.007], the logP is 2.00.

Regarding `Cc1nc2c(F)c(F)ccc2cc1Cc1cccc(F)c1-c1cccnc1` [I.008], the lipophilicity (logP) is 2.64.

As to `Cc1nc2c(F)c(F)ccc2cc1Nc1cccc(F)c1-c1cccnc1` [I.009], the logP amounted to 2.28.

Consider `Cc1nc2c(F)c(F)ccc2cc1Nc1cccc(F)c1-c1ccncc1` [I.010], for which the lipophilicity (logP) is recorded as 2.01.

`Cc1nc2c(F)c(F)ccc2cc1Cc1cccc(F)c1-c1cncnc1` [I.011] displayed a lipophilicity (logP) of 2.76.

Regarding `Cc1nc2c(F)cccc2cc1Nc1cc(F)ccc1-c1ccncc1F` [I.012], the logP was 2.95.

Regarding `Cc1nc2c(F)c(F)ccc2cc1Nc1cccc(F)c1-c1cncnc1` [I.013], the logP was found to be 2.61.

As for `Cc1nc2c(F)cccc2nc1Nc1cccc(F)c1-c1ccncc1F` [I.015], the logP was found to be 2.67.

`Cc1nc2c(F)c(F)ccc2cc1Nc1cccc(F)c1-c1ccnnc1` [I.016] displayed a lipophilicity (logP) of 2.44.

Take `Cc1nc2c(F)c(F)ccc2cc1Cc1cccc(F)c1C1=CCCCO1` [I.017]: the lipophilicity (logP) was 4.41.

Turning to `Cc1nc2c(F)c(F)ccc2cc1Nc1cccc(F)c1C1=CCCCO1` [I.018], the log partition coefficient (logP) turned out to be 4.44.

For `Cc1nc2c(F)c(F)ccc2cc1Nc1ccccc1-c1ccc(C#N)nc1` [I.019], the lipophilicity (logP) turned out to be 3.25.

As to `Cc1nc2c(F)c(F)ccc2cc1Nc1ccccc1-c1cncc(C#N)c1` [I.020], the log partition coefficient (logP) was 3.04.

With `Cc1nc2c(F)c(F)ccc2cc1Nc1ccccc1-c1ccncc1C#N` [I.021], the logP is given as 1.41.

With `CCc1cnccc1-c1ccccc1Nc1cc2ccc(F)c(F)c2nc1C` [I.022], the logP is on record as 2.08.

With `CCc1ccncc1-c1ccccc1Nc1cc2ccc(F)c(F)c2nc1C` [I.023], the log partition coefficient (logP) came out at 2.08.

`CCc1ncccc1-c1ccccc1Nc1cc2ccc(F)c(F)c2nc1C` [I.024] yielded a logP of 2.03.

In turn, `Cc1cncc(C)c1-c1ccccc1Nc1cc2ccc(F)c(F)c2nc1C` [I.025] had a logP of 2.05.

On to `Cc1nc2c(F)c(F)ccc2cc1Nc1ccccc1-c1cccc(=O)n1C` [I.026], for which the logP was found to be 2.52.

As to `COc1cnccc1-c1ccccc1Nc1cc2ccc(F)c(F)c2nc1C` [I.027], the logP came out at 2.14.

`COc1cc(-c2ccccc2Nc2cc3ccc(F)c(F)c3nc2C)ccn1` [I.028]: the logP amounted to 3.56.

`COc1cccc(-c2ccccc2Nc2cc3ccc(F)c(F)c3nc2C)n1` [I.029] returned a lipophilicity (logP) of 4.66.

`COc1ccncc1-c1ccccc1Nc1cc2ccc(F)c(F)c2nc1C` [I.030] showed a lipophilicity (logP) of 1.77.

Take `Cc1cc(-c2ccccc2Nc2cc3ccc(F)c(F)c3nc2C)cnc1F` [I.031]: the lipophilicity (logP) was found to be 3.69.

`Cc1cncc(-c2c(F)cccc2Nc2cc3ccc(F)c(F)c3nc2C)c1` [I.032] came in with a lipophilicity (logP) of 2.26.

`Cc1cc(-c2c(F)cccc2Nc2cc3ccc(F)c(F)c3nc2C)ccn1` [I.033] returned a log partition coefficient (logP) of 1.88.

For `Cc1nc2c(F)c(F)ccc2cc1Nc1ccccc1-c1ccncc1Cl` [I.034], the logP is reported as 3.37.

Molecule `Cc1nc2c(F)c(F)ccc2cc1Nc1ccccc1-c1cccc(Cl)n1` [I.035] came in with a logP of 4.97.

`Cc1nc2c(F)c(F)ccc2cc1Nc1ccccc1-c1ccnc(Cl)c1` [I.036] yielded a lipophilicity (logP) of 3.56.

Take `Cc1nc2c(F)c(F)ccc2cc1Nc1ccccc1-c1ccc(Cl)nc1` [I.037]: the lipophilicity (logP) came out at 3.62.

For the molecule `Cc1nc2c(F)c(F)ccc2cc1Nc1ccccc1-c1cccnc1Cl` [I.038], the logP turned out to be 3.43.

Regarding `Cc1nc2c(F)c(F)ccc2cc1Nc1ccccc1-c1cnccc1Cl` [I.039], the logP was 3.22.

The molecule `Cc1nc2c(F)c(F)ccc2cc1Nc1ccccc1-c1cncc(Cl)c1` [I.040] returned a logP of 3.54.

Consider `Cc1nc2c(F)c(F)ccc2cc1Cc1cccc(F)c1-c1ccncc1F` [I.041], for which the logP is 3.40.

On to `Cc1nc2c(F)c(F)ccc2cc1Cc1cccc(F)c1-c1cccnc1F` [I.043], for which the log partition coefficient (logP) is 3.55.

Turning to `Cc1nc2c(F)c(F)ccc2cc1Cc1cccc(F)c1-c1ccnc(F)c1` [I.044], the log partition coefficient (logP) is reported as 3.65.

For the molecule `Cc1nc2c(F)c(F)ccc2cc1Nc1cccc(F)c1-c1ccc(F)nc1` [I.045], the logP was determined as 3.46.

As for `Cc1nc2c(F)c(F)ccc2cc1Nc1cccc(F)c1-c1ccnc(F)c1` [I.046], the lipophilicity (logP) was 3.46.

The molecule `Cc1nc2c(F)c(F)ccc2cc1Nc1cccc(F)c1-c1cccnc1F` [I.047] came in with a logP of 3.35.

Consider `Cc1nc2c(F)c(F)ccc2cc1Nc1c(F)cccc1-c1ccncc1F` [I.048], for which the logP was found to be 3.04.

Molecule `Cc1nc2c(F)c(F)ccc2cc1Nc1ccc(F)cc1-c1ccncc1F` [I.049] yielded a logP of 3.24.

In the case of `Cc1nc2c(F)c(F)ccc2nc1Cc1cccc(F)c1-c1ccncc1F` [I.050], the logP is listed as 3.31.

Take `Cc1nc2c(F)c(F)ccc2cc1Nc1cccc(F)c1-c1ccncc1F` [I.051]: the log partition coefficient (logP) was 3.29.

The molecule `Cc1nc2c(F)c(F)ccc2cc1Nc1ccccc1-c1ccnc(F)c1F` [I.053] returned a log partition coefficient (logP) of 3.69.

For `Cc1nc2c(F)c(F)ccc2cc1Nc1ccccc1-c1cc(F)nc(F)c1` [I.054], the log partition coefficient (logP) worked out at 3.91.

On to `Cc1nc2c(F)c(F)ccc2cc1Nc1ccccc1-c1ccc(F)nc1F` [I.055], for which the logP was determined as 3.81.

The molecule `Cc1nc2c(F)c(F)ccc2nc1Nc1cccc(F)c1-c1ccncc1F` [I.056] displayed a log partition coefficient (logP) of 2.98.

In turn, `Cc1nc2c(F)c(F)ccc2cc1Nc1ccccc1-c1cnccc1C1CC1` [I.057] displayed a logP of 2.05.

As for `Cc1nc2c(F)c(F)ccc2cc1Nc1ccccc1-c1ccncc1C1CC1` [I.058], the log partition coefficient (logP) is 2.12.

With `Cc1nc2c(F)c(F)ccc2cc1Nc1ccccc1-c1cccnc1C1CC1` [I.059], the logP is 2.80.

In the case of `CCCc1ncccc1-c1ccccc1Nc1cc2ccc(F)c(F)c2nc1C` [I.060], the logP was 2.21.

`CCCc1cnccc1-c1ccccc1Nc1cc2ccc(F)c(F)c2nc1C` [I.061] gave a lipophilicity (logP) of 2.31.

`CCCc1ccncc1-c1ccccc1Nc1cc2ccc(F)c(F)c2nc1C` [I.062] showed a logP of 2.41.

In turn, `Cc1nc2c(F)c(F)ccc2cc1Nc1cccc(F)c1-c1ccncc1C#N` [I.063] had a logP of 1.46.

On to `Cc1nc2c(F)c(F)ccc2cc1Nc1cccc(F)c1-c1cncc(C#N)c1` [I.064], for which the logP is listed as 3.16.

In the case of `CCOc1ccc(-c2ccccc2Nc2cc3ccc(F)c(F)c3nc2C)cn1` [I.065], the lipophilicity (logP) was 4.02.

Turning to `CCOc1ncccc1-c1ccccc1Nc1cc2ccc(F)c(F)c2nc1C` [I.066], the log partition coefficient (logP) was 4.24.

`CCc1cnccc1-c1c(F)cccc1Nc1cc2ccc(F)c(F)c2nc1C` [I.067] showed a log partition coefficient (logP) of 2.41.

In the case of `CCc1ccncc1-c1c(F)cccc1Nc1cc2ccc(F)c(F)c2nc1C` [I.068], the logP was 2.41.

`CCc1ncccc1-c1c(F)cccc1Nc1cc2ccc(F)c(F)c2nc1C` [I.069] registered a logP of 2.41.

Regarding `Cc1cncc(C)c1-c1c(F)cccc1Nc1cc2ccc(F)c(F)c2nc1C` [I.070], the logP worked out at 2.28.

`CSc1ccc(-c2ccccc2Nc2cc3ccc(F)c(F)c3nc2C)cn1` [I.071]: the logP turned out to be 3.81.

Turning to `CSc1ncccc1-c1ccccc1Nc1cc2ccc(F)c(F)c2nc1C` [I.072], the logP came to 4.08.

`COc1ccc(-c2c(F)cccc2Cc2cc3ccc(F)c(F)c3nc2C)cn1` [I.073]: the logP was 3.99.

In turn, `COc1cccc(-c2c(F)cccc2Cc2cc3ccc(F)c(F)c3nc2C)n1` [I.074] had a lipophilicity (logP) of 3.79.

`COc1ncccc1-c1c(F)cccc1Cc1cc2ccc(F)c(F)c2nc1C` [I.075] registered a logP of 3.79.

`COc1ncccc1-c1c(F)cccc1Nc1cc2ccc(F)c(F)c2nc1C` [I.076] yielded a logP of 3.70.

In the case of `COc1ccc(-c2c(F)cccc2Nc2cc3ccc(F)c(F)c3nc2C)cn1` [I.077], the logP turned out to be 3.71.

With `COc1ncc(-c2c(F)cccc2Cc2cc3ccc(F)c(F)c3nc2C)cn1` [I.078], the logP was found to be 3.25.

The molecule `COc1c(-c2ccccc2Nc2cc3ccc(F)c(F)c3nc2C)ccnc1F` [I.079] came in with a logP of 3.72.

`COc1cccc(-c2c(F)cccc2Nc2cc3ccc(F)c(F)c3nc2C)n1` [I.080] came in with a lipophilicity (logP) of 4.55.

The data set is the same for the next values; noted with them: reversed-phase HPLC column (C 18); preparation examples; log P as defined in table 1 (HPLC, 0.1% aqueous formic acid/acetonitrile).
On to `Nc1cccc(F)c1-c1ccncc1F`, for which the chromatographic logP stood at 2.38.

In turn, `Cc1nc2c(F)c(F)ccc2cc1Cc1cscc1Br` [3-[(4-bromo-3-thienyl)methyl]-7,8-difluoro-2-methylquinoline] displayed a chromatographic logP of 4.01.

`ClCc1cscc1Br` [3-bromo-4-(chloromethyl)thiophene] registered a chromatographic logP of 2.99.

In the case of `Cc1nc2c(F)c(F)ccc2cc1Cc1cccc(F)c1-c1ccc(F)nc1` [I.042, 7,8-difluoro-3-[3-fluoro-2-(6-fluoropyridin-3-yl)benzyl]-2-methylquinoline], the chromatographic logP was 3.7.
